≈ marks a conversion by molar mass, not a printed value. Like-named read-outs stand apart in the source and are kept apart here.
Columns and labels:
Assay in all cases: Anti-bacterial activity (MIC), agar dilution
Format in all cases: cell-based
Kleb. pneumoniae EK-6 = details: Kleb. pneumoniae EK-6, agar dilution, about 10^6 CFU/ml, 18 hours, 37° C.
How it was run: (§1)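 Agar dilution; MH broth overnight cultures → ~10^6 CFU/ml; spotted on MH agar with twofold serial drug dilutions; 18 h, 37° C; MIC in μg/ml.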

[1] = system: Morganella morganii EP-14; details: about 10^6 CFU/ml, 37° C.
How it was run: as §1

Pseud. aeruginosa EP-01 = details: Pseud. aeruginosa EP-01, agar dilution, about 10^6 CFU/ml, 18 hours, 37° C.
How it was run: as §1

Ser. marcescens ES-75 = details: Ser. marcescens ES-75, agar dilution, about 10^6 CFU/ml, 18 hours, 37° C.
How it was run: as §1

Escher. coli NIHJ = details: Escher. coli NIHJ, agar dilution, about 10^6 CFU/ml, 18 hours, 37° C.
How it was run: as §1

Staph. aureus 209-P = details: Staph. aureus 209-P, agar dilution, about 10^6 CFU/ml, 18 hours, 37° C.
How it was run: as §1

[2] = Klebsiella pneumoniae, EK6, 18 h, read-out: MIC
[3] = Morganella morganii, EP14, 18 h, read-out: MIC
[4] = Pseudomonas aeruginosa, EP01, 18 h, read-out: MIC
[5] = Serratia marcescens, ES75, 18 h, read-out: MIC
[6] = Escherichia coli, 18 h, read-out: MIC
[7] = Staphylococcus aureus, 209P, 18 h, read-out: MIC

SMILES	MIC (Kleb. pneumoniae EK-6; [2])	MIC [1, 3]	MIC (Pseud. aeruginosa EP-01; [4])	MIC (Ser. marcescens ES-75; [5])	MIC (Escher. coli NIHJ; [6])	MIC (Staph. aureus 209-P; [7])	MIC (Kleb. pneumoniae EK-6)	MIC ([1]; 18 hours)	MIC (Pseud. aeruginosa EP-01)	MIC (Ser. marcescens ES-75)	MIC (Escher. coli NIHJ)	MIC (Staph. aureus 209-P)
Nc1nc(/C(=N/OCF)C(=O)N[C@@H]2C(=O)N3C(C(=O)[O-])=C(/C=C/C[n+]4ccc(C(=O)N(CCO)CCO)cc4)CS[C@H]23)ns1 [Example 83]	≤ 0.025 µg/mL	≤ 0.025 µg/mL	3.13 µg/mL (≈ 4.81 µM)	0.1 µg/mL (≈ 0.154 µM)	0.05 µg/mL (≈ 0.0768 µM)	0.8 µg/mL (≈ 1.23 µM)						
Nc1nc(/C(=N/OCF)C(=O)N[C@@H]2C(=O)N3C(C(=O)[O-])=C(/C=C/C[n+]4ccc(C(=O)NCCO)cc4)CS[C@H]23)ns1 [Example 84]	≤ 0.025 µg/mL	0.05 µg/mL (≈ 0.0824 µM)	1.56 µg/mL (≈ 2.57 µM)	0.1 µg/mL (≈ 0.165 µM)	0.05 µg/mL (≈ 0.0824 µM)	0.4 µg/mL (≈ 0.659 µM)						
NC(=O)Cc1ccc[n+](C/C=C/C2=C(C(=O)[O-])N3C(=O)[C@@H](NC(=O)/C(=N\OCF)c4nsc(N)n4)[C@H]3SC2)c1 [Example 85]	≤ 0.025 µg/mL	≤ 0.025 µg/mL	1.56 µg/mL (≈ 2.71 µM)	≤ 0.025 µg/mL	≤ 0.025 µg/mL	0.2 µg/mL (≈ 0.347 µM)						
C[N+](C)(C/C=C/C1=C(C(=O)[O-])N2C(=O)[C@@H](NC(=O)/C(=N\OCF)c3nsc(N)n3)[C@H]2SC1)CC(O)CO (stereo partly drawn) [Example 88]	≤ 0.025 µg/mL	≤ 0.025 µg/mL	0.8 µg/mL (≈ 1.43 µM)	≤ 0.025 µg/mL	≤ 0.025 µg/mL	0.2 µg/mL (≈ 0.357 µM)						
C[N+]1(CC=CC2=C(C(=O)[O-])N3C(=O)C(NC(=O)C(=NOCF)c4nsc(N)n4)C3SC2)CC(O)CC1CO (stereo not drawn) [Example 89-1]	≤ 0.025 µg/mL	≤ 0.025 µg/mL	0.8 µg/mL (≈ 1.4 µM)	≤ 0.025 µg/mL	≤ 0.025 µg/mL	0.2 µg/mL (≈ 0.35 µM)						
C[N+]1(CC=CC2=C(C(=O)[O-])N3C(=O)C(NC(=O)C(=NOCF)c4nsc(N)n4)C3SC2)CC(O)CC1CO (stereo not drawn) [Example 89-2]							≤ 0.025 µg/mL	≤ 0.025 µg/mL	0.8 µg/mL (≈ 1.4 µM)	≤ 0.025 µg/mL	≤ 0.025 µg/mL	0.2 µg/mL (≈ 0.35 µM)
C[N+]1(C/C=C/C2=C(C(=O)[O-])N3C(=O)[C@@H](NC(=O)/C(=N\OCF)c4nsc(N)n4)[C@H]3SC2)CCC(O)CC1 (stereo partly drawn) [Example 90]	≤ 0.025 µg/mL	0.05 µg/mL (≈ 0.09 µM)	0.8 µg/mL (≈ 1.44 µM)	≤ 0.025 µg/mL	0.05 µg/mL (≈ 0.09 µM)	0.2 µg/mL (≈ 0.36 µM)						
Nc1nc(/C(=N/OCF)C(=O)N[C@@H]2C(=O)N3C(C(=O)[O-])=C(/C=C/C[N+]4(CCO)CCC(O)CC4)CS[C@H]23)ns1 (stereo partly drawn) [Example 91]	≤ 0.025 µg/mL	≤ 0.025 µg/mL	1.56 µg/mL (≈ 2.66 µM)	≤ 0.025 µg/mL	0.05 µg/mL (≈ 0.0854 µM)	0.2 µg/mL (≈ 0.342 µM)						
C[N+](C)(C/C=C/C1=C(C(=O)[O-])N2C(=O)[C@@H](NC(=O)/C(=N\OCF)c3nsc(N)n3)[C@H]2SC1)CC(=O)NCO [Example 92]	≤ 0.025 µg/mL	≤ 0.025 µg/mL	0.8 µg/mL (≈ 1.4 µM)	≤ 0.025 µg/mL	≤ 0.025 µg/mL	0.2 µg/mL (≈ 0.349 µM)						
C[N+](C)(C/C=C/C1=C(C(=O)[O-])N2C(=O)[C@@H](NC(=O)/C(=N\OCF)c3nsc(N)n3)[C@H]2SC1)CCC(N)=O [Example 93]	≤ 0.025 µg/mL	≤ 0.025 µg/mL	0.8 µg/mL (≈ 1.44 µM)	≤ 0.025 µg/mL	≤ 0.025 µg/mL	0.2 µg/mL (≈ 0.359 µM)						
C[N+]1(C/C=C/C2=C(C(=O)[O-])N3C(=O)[C@@H](NC(=O)/C(=N\OCF)c4nsc(N)n4)[C@H]3SC2)CCCN(C(N)=O)CC1 (stereo partly drawn) [Example 94]	≤ 0.025 µg/mL	≤ 0.025 µg/mL	0.8 µg/mL (≈ 1.34 µM)	≤ 0.025 µg/mL	≤ 0.025 µg/mL	0.2 µg/mL (≈ 0.335 µM)						
C[N+](C)(C/C=C/C1=C(C(=O)[O-])N2C(=O)[C@@H](NC(=O)/C(=N\OCF)c3nsc(N)n3)[C@H]2SC1)C(CO)CO [Example 95]	≤ 0.025 µg/mL	≤ 0.025 µg/mL	0.8 µg/mL (≈ 1.43 µM)	≤ 0.025 µg/mL	0.05 µg/mL (≈ 0.0893 µM)	0.2 µg/mL (≈ 0.357 µM)						
CNC(=O)CC[N+](C)(C)C/C=C/C1=C(C(=O)[O-])N2C(=O)[C@@H](NC(=O)/C(=N\OCF)c3nsc(N)n3)[C@H]2SC1 [Example 97]	≤ 0.025 µg/mL	≤ 0.025 µg/mL	0.8 µg/mL (≈ 1.4 µM)	≤ 0.025 µg/mL	≤ 0.025 µg/mL	0.2 µg/mL (≈ 0.35 µM)						
CN(C)C(=O)CC[N+](C)(C)C/C=C/C1=C(C(=O)[O-])N2C(=O)[C@@H](NC(=O)/C(=N\OCF)c3nsc(N)n3)[C@H]2SC1 [Example 98]	0.05 µg/mL (≈ 0.0855 µM)	≤ 0.025 µg/mL	3.13 µg/mL (≈ 5.35 µM)	0.05 µg/mL (≈ 0.0855 µM)	0.05 µg/mL (≈ 0.0855 µM)	0.4 µg/mL (≈ 0.684 µM)						
COCC[N+](C)(C)C/C=C/C1=C(C(=O)[O-])N2C(=O)[C@@H](NC(=O)/C(=N\OCF)c3nsc(N)n3)[C@H]2SC1 [Example 99]	≤ 0.025 µg/mL	≤ 0.025 µg/mL	1.56 µg/mL (≈ 2.87 µM)	≤ 0.025 µg/mL	≤ 0.025 µg/mL	0.2 µg/mL (≈ 0.368 µM)						
NC(=O)N1CCC[N+](C/C=C/C2=C(C(=O)[O-])N3C(=O)[C@@H](NC(=O)/C(=N\OCF)c4nsc(N)n4)[C@H]3SC2)(CCO)CC1 (stereo partly drawn) [Example 101]	≤ 0.025 µg/mL	≤ 0.025 µg/mL	1.56 µg/mL (≈ 2.49 µM)	≤ 0.025 µg/mL	0.05 µg/mL (≈ 0.0797 µM)	0.2 µg/mL (≈ 0.319 µM)						
C[N+](C)(C/C=C/C1=C(C(=O)[O-])N2C(=O)[C@@H](NC(=O)/C(=N\OCF)c3nsc(N)n3)[C@H]2SC1)Cc1ccn[nH]1 [Example 102]	≤ 0.025 µg/mL	≤ 0.025 µg/mL	1.56 µg/mL (≈ 2.76 µM)	0.05 µg/mL (≈ 0.0884 µM)	≤ 0.025 µg/mL	0.2 µg/mL (≈ 0.354 µM)						
Nc1ccc[n+](C/C=C/C2=C(C(=O)[O-])N3C(=O)[C@@H](NC(=O)/C(=N\OCF)c4nsc(N)n4)[C@H]3SC2)c1 [Example 103]	≤ 0.025 µg/mL	≤ 0.025 µg/mL	3.13 µg/mL (≈ 5.86 µM)	≤ 0.025 µg/mL	≤ 0.025 µg/mL	0.1 µg/mL (≈ 0.187 µM)						
C[N+](C)(C/C=C/C1=C(C(=O)[O-])N2C(=O)[C@@H](NC(=O)/C(=N\OCF)c3nsc(N)n3)[C@H]2SC1)Cc1cnc[nH]1 [Example 106]	0.05 µg/mL (≈ 0.0884 µM)	0.05 µg/mL (≈ 0.0884 µM)	3.13 µg/mL (≈ 5.53 µM)	0.1 µg/mL (≈ 0.177 µM)	≤ 0.025 µg/mL	0.4 µg/mL (≈ 0.707 µM)						
Nc1nc(/C(=N/OCF)C(=O)N[C@@H]2C(=O)N3C(C(=O)[O-])=C(/C=C/C[N+](N)(CCO)CCO)CS[C@H]23)ns1 [Example 107]	≤ 0.025 µg/mL	≤ 0.025 µg/mL	1.56 µg/mL (≈ 2.78 µM)	0.05 µg/mL (≈ 0.0892 µM)	0.05 µg/mL (≈ 0.0892 µM)	0.2 µg/mL (≈ 0.357 µM)						
Nc1nc(/C(=N/OCF)C(=O)N[C@@H]2C(=O)N3C(C(=O)[O-])=C(/C=C/C[n+]4ccc(C(=O)N5CCOCC5)cc4)CS[C@H]23)ns1 [Example 108]	≤ 0.025 µg/mL	0.05 µg/mL (≈ 0.079 µM)	3.13 µg/mL (≈ 4.95 µM)	0.1 µg/mL (≈ 0.158 µM)	0.05 µg/mL (≈ 0.079 µM)	0.4 µg/mL (≈ 0.632 µM)						
C[N+](C)(C/C=C/C1=C(C(=O)[O-])N2C(=O)[C@@H](NC(=O)/C(=N\OC(F)F)c3nsc(N)n3)[C@H]2SC1)CC(N)=O [Example 114, 7β-[2-(5-Amino-1,2,4-thiadiazol-3-yl)-(Z)-2-difluoromethoxyiminoacetamido]-3-[(E)-3-(dimethylcarbamoylmethylammonio)-1-propen-1-yl]-3-cephem-4-carboxylate]	≤ 0.025 µg/mL	≤ 0.025 µg/mL	0.8 µg/mL (≈ 1.43 µM)	0.05 µg/mL (≈ 0.0892 µM)	0.05 µg/mL (≈ 0.0892 µM)	0.2 µg/mL (≈ 0.357 µM)						
Nc1nc(/C(=N/OC(F)F)C(=O)N[C@@H]2C(=O)N3C(C(=O)[O-])=C(/C=C/C[n+]4ccc(C(=O)O)cc4)CS[C@H]23)ns1 [Example 115]	≤ 0.025 µg/mL	≤ 0.025 µg/mL	3.13 µg/mL (≈ 5.38 µM)	0.05 µg/mL (≈ 0.086 µM)	≤ 0.025 µg/mL	0.8 µg/mL (≈ 1.38 µM)						
Nc1nc(/C(=N/OC(F)F)C(=O)N[C@@H]2C(=O)N3C(C(=O)[O-])=C(/C=C/C[N+]45CCN(CC4)CC5)CS[C@H]23)ns1 [Example 116]	≤ 0.025 µg/mL	≤ 0.025 µg/mL	1.56 µg/mL (≈ 2.73 µM)	≤ 0.025 µg/mL	≤ 0.025 µg/mL	0.2 µg/mL (≈ 0.351 µM)						
Nc1nc(/C(=N/OC(F)F)C(=O)N[C@@H]2C(=O)N3C(C(=O)[O-])=C(/C=C/C[N+](CCO)(CCO)CCO)CS[C@H]23)ns1 [Example 117]	0.05 µg/mL (≈ 0.0823 µM)	≤ 0.025 µg/mL	1.56 µg/mL (≈ 2.57 µM)	0.2 µg/mL (≈ 0.329 µM)	0.05 µg/mL (≈ 0.0823 µM)	0.4 µg/mL (≈ 0.658 µM)						
C[N+](C)(C/C=C/C1=C(C(=O)[O-])N2C(=O)[C@@H](NC(=O)/C(=N\OCF)c3nsc(N)n3)[C@H]2SC1)CC(N)=O [Example 118, 7β-[2-(5-Amino-1,2,4-thiadiazol-3-yl)-(Z)-2-fluoromethoxyiminoacetamido]-3-[(E)-3-(carbamoylmethyldimethylammonio)-1-propen-1-yl]-3-cephem-4-carboxylate]	≤ 0.025 µg/mL	≤ 0.025 µg/mL	0.4 µg/mL (≈ 0.737 µM)	0.1 µg/mL (≈ 0.184 µM)	≤ 0.025 µg/mL	0.2 µg/mL (≈ 0.369 µM)						
